Literature values in patent US20250375417A1, “OREXIN RECEPTOR 2 (OX2R) AGONIST FOR USE IN NARCOLEPSY TYPE 1 (NT1)” (TAKEDA PHARMACEUTICAL COMPANY LIMITED, priority 2024, published 2025).

Settings: phase 2 clinical studies of firazorexton; cited from earlier work

For `CC(C)(O)C(=O)N1CC[C@H](NS(C)(=O)=O)[C@@H]1Cc1cccc(-c2cc(F)cc(F)c2)c1F` [firazorexton], the Liver toxicity is listed as “liver toxicity was observed”.
